test system: WT P. aeruginosa; assay: Quinolone (HHQ, PQS) quantitation by LCMS in culture fluids; type: cell-based, Pseudomonas aeruginosa; settings: WT P. aeruginosa treated with 100 μM compound; compared with ΔpqsR
Procedure: For all assays: the designated P. aeruginosa strains were grown as described above for the pyocyanin inhibition assay. Following overnight growth, culture fluids were separated from cells by centrifugation and filtration.
For quinolone quantitation: cell-free culture fluids were extracted with 2 mL of ethyl acetate that had been acidified with 0.15 mL/L glacial acetic acid. The organic layer was isolated and dried down in vacuo. Dried samples were resuspended in 50 μL of methanol and analyzed by LCMS on an Agilent 1290 Infinity II HPLC connected to an MSD iQ. The injection was 2 μL. The mobile phase was a water–MeCN gradient containing 0.1% formic acid. Chromatography was performed as follows: 2 min hold at 5% […], ramp up to 95% MeCN over 8 min hold for 2 min at 95% MeCN, return to 5% MeCN and re-equilibrate for 1 min. Data were acquired in positive mode scanning between m/z 100–1000. Source parameters for acquisition were as follows: gas temperature 325 °C, gas flow 11 (L/min), capillary voltage 3500 V. Data were processed using Agilent OpenLAB CDS. Peaks were extracted by m/z, quantified by area under the curve. Each compound was compared to a 100 ng/μL commercial standard of PQS or HHQ.

Row | Compound | production of HHQ | production of PQS
1 | N#Cc1cc(CN2CCC3(CC2)CC(Nc2ncccn2)C3)ccc1F [Compound A7] | reduced to the level made by the P. aeruginosa ΔpqsR strain | reduced to the level made by the P. aeruginosa ΔpqsR strain

test system: WT P. aeruginosa; assay: Real time PCR of phzH and phzS; type: cell-based, Pseudomonas aeruginosa; settings: 100 μM compound, qPCR relative to DMSO
Procedure: Following overnight growth in LB at 37 °C with aeration, P. aeruginosa strains were diluted to an OD600 of 0.001 and grown to an OD600 of 3 at 37 °C with aeration. 500 μL of cells were collected by centrifugation and flash frozen. RNA was extracted using RNAeasy Plus mini columns (Qiagen). DNA was removed, followed by cDNA synthesis, using SuperScript IV VILO Master Mix with ezDNase Enzyme (Invitrogen). RNA was quantified using PerfeCTa SYBR Green FastMix Low ROX (Quanta BioSciences). Relative quantity is calculated by ΔΔCt compared to DMSO treatment and the reference gene, rpsL. Outliers with values higher or lower than twice the standard deviation of the mean were removed.

Row | Compound | phzH expression | phzS expression
2 | N#Cc1ccc(NCC2CCC3(COCCN(Cc4ccccc4OC(F)F)C3)O2)nc1 (stereo not shown) [Compound A8] | reduction only to the level displayed by the ΔpqsE mutant | reduced to the level in the ΔpqsE strain

test system: pphz1-lux in WT P. aeruginosa; assay: P. aeruginosa pphz1-lux bioluminescent reporter assay; type: cell-based, Pseudomonas aeruginosa PA14; settings: Pseudomonas aeruginosa, PA14, read-out: IC50 PA14
Procedure: Strains were struck onto LB agar and grown overnight at 37 °C. The following day, individual colonies were isolated and transferred into LB liquid medium followed by incubation at 37 °C. After overnight growth, cultures were diluted 1:1000 into M9 medium. 100 μL of these suspensions were aliquoted into wells of 96 well plates (Corning). Plates were incubated for 24 h at 37 °C in a BioSpa Automated Incubator (Agilent). Light production and OD600 were quantified from each well at either 15 or 20 min intervals (Neo2, Agilent). When noted, SPR741 (DC Chemicals) was added at the specified concentration.
One thousand small molecules from the initial screen were selected for retesting, following the identical protocol used for the screen. Of these molecules, 751 were assayed for luciferase inhibition using P. aeruginosa containing ptac-lux instead of pphz1-lux. Any compound that inhibited this reporter by at least 50% was eliminated from the pipeline. One hundred and sixty-seven compounds were further analyzed in dilution series to determine IC50 values with respect to pphz1-lux inhibition. A ten-point, 2-fold serial dilution series was made of each test compound in DMSO solvent. The highest tested concentration was 40 μM. These assays were carried out in 384 well plates (Corning) as described above using both the P. aeruginosa ptac-lux and pphz1-lux reporter strains.

Row | Compound | IC50 [nM]
3 | CCOc1ccc(-n2nnnc2CNC(=O)Nc2cccc(Cl)c2)cc1 [Compound B8] | 6400 ± 1000
4 | O=C(NCc1ccc(OC(F)F)cc1)c1ccc(C2SCCS2)cc1 [Compound D6] | 530 ± 28
5 | Cc1nn(-c2ccccc2)c(-n2cccc2)c1C(=O)N1CCC(C(=O)NCCc2ccccc2)CC1 [Compound B3] | 2000 ± 280
6 | N#Cc1ccc(NCC2CCC3(COCCN(Cc4ccccc4OC(F)F)C3)O2)nc1 (stereo not shown) [Compound A8] | 800 ± 200
7 | CCOC1CCN(C(=O)c2cccc(-c3ccc(OC(F)F)cc3)c2)CC1 [Compound C10] | 4400 ± 160
8 | O=C(NC1CCN(Cc2cc(F)cc(F)c2)CC1)c1cc(C(F)(F)F)n[nH]1 [Compound C8] | 3900 ± 380
9 | O=C(NC(C(=O)N1CCOCC1)C12CC3CC(CC(C3)C1)C2)c1ccc([N+](=O)[O-])cc1 (stereo not shown) [Compound B10] | 10500 ± 1400
10 | COc1ccc(Cl)cc1C(=O)NCC(O)C1CCCCC1 (stereo not shown) [Compound D3] | 8200 ± 770
11 | O=S(=O)(Nc1ccc(F)cc1Cl)c1ccc(-c2cc(C(F)(F)F)n[nH]2)s1 [Compound B7] | 3500 ± 360
12 | O=C(Cn1cnc2c(oc3ccccc32)c1=O)N1CCC(Cc2ccccc2)CC1 [Compound B12] | 10500 ± 1200
13 | CC(C)C(C(=O)O)N1C(=O)C(=Cc2cccc(Br)c2)SC1=S (stereo not shown) [Compound E6] | 9700 ± 490
14 | N#Cc1cccc(CNCC2Cn3nnc(-c4ccccc4)c3CO2)c1 (stereo not shown) [Compound A9] | 38000 ± 2400
15 | COc1cccc(-c2nc(CC(=O)Nc3ccc(F)cc3)no2)c1 [Compound C2] | 3200 ± 80
16 | N#CCc1ccc(NC(=O)CNc2ccc(C(F)(F)F)cc2)cc1 [Compound D2] | 2300 ± 20
17 | O=C(Nc1ccc(Cl)c(Cl)c1)c1ccc(=O)n(Cc2cccc(F)c2)n1 [Compound E5] | 2300 ± 120
18 | Cc1noc(CN2CCCC(CCC(=O)Nc3ccc(C(F)(F)F)cc3)C2)n1 (stereo not shown) [Compound C11] | 2800 ± 190
19 | O=C(c1csc2nc(-c3ccc(F)cc3)cn12)N1CCN(c2ccccc2F)CC1 [Compound E3] | 5000 ± 260
20 | O=C(Nc1nnc(C(F)(F)F)s1)C1CC(=O)N(CCc2c[nH]c3ccc(Cl)cc23)C1 (stereo not shown) [Compound B4] | 2800 ± 100
21 | CC(=O)c1cc(-c2ccccc2)n(CC(=O)Nc2nc3ccc(C)cc3s2)c1C [Compound B14] | 11400 ± 900
22 | O=C(CN1CCC(c2nc(-c3cccc(F)c3)no2)CC1)Nc1ccccc1 [Compound B15] | 8600 ± 190
23 | N#Cc1cnc(SCC(=O)Nc2ccc(Cl)c(Br)c2)nc1N [Compound C7] | 2400 ± 400
24 | Cc1cc(Br)ccc1NC(=O)CNC(=O)c1ccc(-n2cnc3ccccc32)cc1 [Compound D1] | 3900 ± 320
25 | N#Cc1cc(CN2CCC3(CC2)CC(Nc2ncccn2)C3)ccc1F [Compound A7] | 2200 ± 230
26 | CC(C)Oc1ccc(N2CC(C(=O)Nc3cccc(Cl)c3Cl)CC2=O)cc1 (stereo not shown) [Compound B2] | 4900 ± 260
27 | Cc1cc(Br)ccc1OCCn1cnc2ccccc2c1=O [Compound D4] | 1100 ± 28
28 | Oc1cc(CN2CCC(CCn3cccn3)CC2)nc2ccc(F)cc12 [Compound C9] | 7600 ± 250
29 | O=S(=O)(c1ccc(-c2cc(C(F)(F)F)n[nH]2)s1)N1CC=C(c2ccccc2)CC1 [Compound B6] | 400 ± 30

same assay, conditions: pphz1-lux in WT P. aeruginosa

Row | Compound | IC50 values in P. aeruginosa
30 | O=C(NCc1ccc(OC(F)F)cc1)c1ccc(C2SCCS2)cc1 [Compound D6] | submicromolar
31 | N#Cc1ccc(NCC2CCC3(COCCN(Cc4ccccc4OC(F)F)C3)O2)nc1 (stereo not shown) [Compound A8] | submicromolar
32 | O=S(=O)(c1ccc(-c2cc(C(F)(F)F)n[nH]2)s1)N1CC=C(c2ccccc2)CC1 [Compound B6] | submicromolar

test system: WT P. aeruginosa; assay: Pyocyanin inhibition assay; type: cell-based, Pseudomonas aeruginosa; settings: 100 μM compound
Procedure: WT P. aeruginosa and the ΔpqsE mutant were struck onto LB agar and grown overnight at 37 °C. Individual colonies were diluted into 5 mL of LB liquid medium. Aliquots were transferred into glass tubes containing test compounds with and without 8 μg/mL SPR741. WT P. aeruginosa to which DMSO had been added served as the negative control. The P. aeruginosa ΔpqsE strain to which DMSO had been added served as the positive control. Compounds were tested at 100 μM. Tubes were shaken for 18 h at 37 °C followed by centrifugation at 15,000 rpm for 5 min. Cell-free culture fluids were collected and assessed for pyocyanin by absorbance at 695 nm. Values were normalized by culture density, using absorbance at OD600. Percent inhibition of OD695/OD600 was normalized to the DMSO control.

Row | Compound | pyocyanin inhibition without versus with SPR741
33 | Cc1cc(Br)ccc1NC(=O)CNC(=O)c1ccc(-n2cnc3ccccc32)cc1 [Compound D1] | improved pyocyanin inhibition in the absence of SPR741 compared to in its presence

biological target: T1, PqsR (Pseudomonas aeruginosa, UniProt Q9I4X0); assay: E. coli PqsR/ppqsA-lux reporter assay; type: cell-based; settings: not given
T1 construct: expressed in transfected cells; host or cells: Escherichia coli carrying pBAD-pqsR and pCS26-ppqsA-luxCDABE
Excerpt: To determine the target(s) of the 49 hit compounds in P. aeruginosa, we assayed them in a set of E. coli-based reporter strains that read out exclusively RhlR, LasR, or PqsR function. The three assays work by a similar logic. In each case, the gene encoding one of the three quorum-sensing receptors is driven by an arabinose-inducible promoter. The receptor proteins, once made, are activated by exogenously supplied cognate autoinducer. The receptor–autoinducer complexes activate a target gene promoter fused to luciferase (prhlA-lux for RhlR, plasB-lux for LasR, and ppqsA-lux for PqsR). […] To further verify that PqsR is the target of our inhibitors, we assessed whether production of PQS and its precursor, HHQ, declined following treatment of WT P. aeruginosa with one test compound, A7. […] Below, we focus on these 30 compounds that we propose target PqsR. The other 19 compounds will be characterized at a later time.
As previously reported, following overnight growth in LB liquid medium at 37 °C, E. coli reporter strains were diluted 1:1000 in LB liquid medium containing 1% arabinose (PqsR) or 0.1% arabinose (LasR and RhlR). The reporter strain for PqsR activity carried pCS26-ppqsA-luxCDABE and pBAD-pqsR. The reporter strain for LasR activity carried pCS26-plasB-luxCDABE and pBAD-lasR; the reporter strain for RhlR activity carried pCS26-prhlA-luxCDABE and pBAD-rhlR. Test compounds were added at the specified concentrations. To activate PqsR, PQS was added at 100 nM. To activate LasR, 3O-C12-HSL was added at 5 nM. To activate RhlR, C4-HSL was added at 10 μM. To establish IC50 values, 10-point, […] serial dilution series were made starting at 100 μM of each compound. The mixtures were incubated at 37 °C for 24 h (BioSpa, Agilent). Bioluminescence and OD600 were assessed every 15 min (Neo2, Agilent). Readings from the 9 h time point, representing peak signal production, were used to calculate the IC50 values.

T1 sequence (Q9I4X0 whole entry): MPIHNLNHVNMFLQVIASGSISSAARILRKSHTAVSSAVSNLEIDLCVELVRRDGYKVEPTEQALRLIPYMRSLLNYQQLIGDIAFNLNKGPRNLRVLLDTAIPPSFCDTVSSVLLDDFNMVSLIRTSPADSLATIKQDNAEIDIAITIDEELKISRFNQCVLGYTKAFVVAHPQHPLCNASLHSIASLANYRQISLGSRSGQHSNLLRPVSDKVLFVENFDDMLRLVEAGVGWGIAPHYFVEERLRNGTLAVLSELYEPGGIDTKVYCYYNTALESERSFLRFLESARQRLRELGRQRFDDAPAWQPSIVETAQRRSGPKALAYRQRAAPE

Row | Compound | IC50 [nM]
34 | CCOc1ccc(-n2nnnc2CNC(=O)Nc2cccc(Cl)c2)cc1 [Compound B8] | 2370 ± 770
35 | O=C(NCc1ccc(OC(F)F)cc1)c1ccc(C2SCCS2)cc1 [Compound D6] | 420 ± 45
36 | Cc1nn(-c2ccccc2)c(-n2cccc2)c1C(=O)N1CCC(C(=O)NCCc2ccccc2)CC1 [Compound B3] | 5200 ± 1700
37 | N#Cc1ccc(NCC2CCC3(COCCN(Cc4ccccc4OC(F)F)C3)O2)nc1 (stereo not shown) [Compound A8] | 1900 ± 440
38 | O=C(NC1CCN(Cc2cc(F)cc(F)c2)CC1)c1cc(C(F)(F)F)n[nH]1 [Compound C8] | 270 ± 40
39 | COc1ccc(Cl)cc1C(=O)NCC(O)C1CCCCC1 (stereo not shown) [Compound D3] | 8390 ± 75
40 | O=S(=O)(Nc1ccc(F)cc1Cl)c1ccc(-c2cc(C(F)(F)F)n[nH]2)s1 [Compound B7] | 3800 ± 300
41 | O=C(Cn1cnc2c(oc3ccccc32)c1=O)N1CCC(Cc2ccccc2)CC1 [Compound B12] | 14500 ± 1900
42 | N#Cc1cccc(CNCC2Cn3nnc(-c4ccccc4)c3CO2)c1 (stereo not shown) [Compound A9] | 3900 ± 650
43 | COc1cccc(-c2nc(CC(=O)Nc3ccc(F)cc3)no2)c1 [Compound C2] | 830 ± 170
44 | N#CCc1ccc(NC(=O)CNc2ccc(C(F)(F)F)cc2)cc1 [Compound D2] | 1320 ± 170
45 | Cc1ccc(C(=O)NCc2nc(-c3ccc(Oc4ccccc4)cc3)no2)cc1 [Compound B9] | 2000 ± 240
46 | O=C(Nc1ccc(Cl)c(Cl)c1)c1ccc(=O)n(Cc2cccc(F)c2)n1 [Compound E5] | 2870 ± 840
47 | Cc1noc(CN2CCCC(CCC(=O)Nc3ccc(C(F)(F)F)cc3)C2)n1 (stereo not shown) [Compound C11] | 2940 ± 830
48 | O=C(Nc1nnc(C(F)(F)F)s1)C1CC(=O)N(CCc2c[nH]c3ccc(Cl)cc23)C1 (stereo not shown) [Compound B4] | 590 ± 70
49 | CC(=O)c1cc(-c2ccccc2)n(CC(=O)Nc2nc3ccc(C)cc3s2)c1C [Compound B14] | 14500 ± 3390
50 | O=C(CN1CCC(c2nc(-c3cccc(F)c3)no2)CC1)Nc1ccccc1 [Compound B15] | 7040 ± 1180
51 | N#Cc1cnc(SCC(=O)Nc2ccc(Cl)c(Br)c2)nc1N [Compound C7] | 670 ± 80
52 | Cc1cc(Br)ccc1NC(=O)CNC(=O)c1ccc(-n2cnc3ccccc32)cc1 [Compound D1] | 1990 ± 880
53 | N#Cc1cc(CN2CCC3(CC2)CC(Nc2ncccn2)C3)ccc1F [Compound A7] | 510 ± 160
54 | CC(C)Oc1ccc(N2CC(C(=O)Nc3cccc(Cl)c3Cl)CC2=O)cc1 (stereo not shown) [Compound B2] | 4700 ± 560
55 | Cc1cc(Br)ccc1OCCn1cnc2ccccc2c1=O [Compound D4] | 1230 ± 310
56 | O=C(NCc1cccs1)C1CCN(c2ccc3nnc(-c4ccccc4F)n3n2)CC1 [Compound B13] | 11900 ± 980
57 | Oc1cc(CN2CCC(CCn3cccn3)CC2)nc2ccc(F)cc12 [Compound C9] | 210 ± 80
58 | O=C(Cn1nnc(-c2ccccc2)n1)Nc1ccc(Br)cc1 [Compound C6] | 370 ± 80
59 | O=S(=O)(c1ccc(-c2cc(C(F)(F)F)n[nH]2)s1)N1CC=C(c2ccccc2)CC1 [Compound B6] | 550 ± 120

— PMC12186256, “Inhibitors of the PqsR Quorum-Sensing Receptor Reveal Differential Roles for PqsE and RhlI in Control of Phenazine Production” (ACS Chemical Biology, 2025)
